Here are results for one compound from ChEMBL document CHEMBL5154671 (Eur J Med Chem, 2022).

SMILES strings stand for the structures. Active and inactive are the calls of the source. The rule behind the calls is not given here.

In data set [1] the target is T1, Peroxisome proliferator-activated receptor gamma (Homo sapiens, UniProt P37231).
T1 sequence (P37231 whole entry): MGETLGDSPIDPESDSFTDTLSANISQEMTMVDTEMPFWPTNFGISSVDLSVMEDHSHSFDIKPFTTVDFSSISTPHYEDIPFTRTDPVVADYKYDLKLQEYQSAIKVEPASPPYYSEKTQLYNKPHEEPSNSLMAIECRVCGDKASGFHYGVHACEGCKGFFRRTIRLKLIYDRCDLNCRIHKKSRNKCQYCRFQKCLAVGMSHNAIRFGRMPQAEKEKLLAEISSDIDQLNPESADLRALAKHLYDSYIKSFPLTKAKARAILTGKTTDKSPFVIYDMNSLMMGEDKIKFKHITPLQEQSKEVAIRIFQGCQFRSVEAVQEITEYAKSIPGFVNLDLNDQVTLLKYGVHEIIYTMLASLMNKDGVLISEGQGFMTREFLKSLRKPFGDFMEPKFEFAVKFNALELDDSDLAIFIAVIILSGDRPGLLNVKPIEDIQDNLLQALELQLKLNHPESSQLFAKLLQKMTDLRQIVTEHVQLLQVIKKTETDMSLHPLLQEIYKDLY
Put plainly: Agonist activity at human PPARgamma measured by dual luciferase reporter gene assay. (In general: In a reporter assay the amount or activity of a reporter protein is the signal.)

Data set [2] deals with T2, Peroxisome proliferator-activated receptor delta (Homo sapiens, UniProt Q03181).
T2 sequence (Q03181 whole entry): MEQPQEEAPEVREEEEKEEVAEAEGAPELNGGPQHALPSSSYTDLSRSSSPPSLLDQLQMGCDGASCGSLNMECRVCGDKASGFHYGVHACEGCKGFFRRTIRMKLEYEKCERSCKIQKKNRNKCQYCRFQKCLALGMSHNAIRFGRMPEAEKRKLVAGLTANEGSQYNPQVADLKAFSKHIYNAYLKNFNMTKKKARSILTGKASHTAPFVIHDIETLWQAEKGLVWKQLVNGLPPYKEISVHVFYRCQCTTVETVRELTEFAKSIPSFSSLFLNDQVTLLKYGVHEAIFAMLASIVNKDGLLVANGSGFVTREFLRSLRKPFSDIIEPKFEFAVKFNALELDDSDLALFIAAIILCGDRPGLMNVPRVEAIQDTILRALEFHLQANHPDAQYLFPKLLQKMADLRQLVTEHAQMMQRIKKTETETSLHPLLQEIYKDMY
Put plainly: Agonist activity at human PPARdelta measured by dual luciferase reporter gene assay.

Data set [3] can be described thus: Half-life in rat liver microsomes in presence of NADPH measured by LC/MS analysis. In kind it is ADME, Microsome. (In general: Microsomes from liver hold many membrane-bound enzymes, among them those of drug oxidation.)
In data set [4] the test system is Mus musculus. Put plainly: Anti-NASH activity in high-fat/high-sugar diet and CCl4-induced nonalcoholic steatohepatitis male C57BL/6 mouse assessed as increase in HDL level at 100 mg/kg, po administered for 4 weeks. The format is functional, organism-based.
Data set [5] relates to Mus musculus. Put plainly: Anti-NASH activity in high-fat/high-sugar diet and CCl4-induced nonalcoholic steatohepatitis male C57BL/6 mouse assessed as decrease in hepatocyte ballooning score at 100 mg/kg, po administered for 4 weeks. The format is functional, organism-based.
The subject of data set [6] is Mus musculus. Put plainly: Protection against liver fibrosis in high-fat/high-sugar diet and CCl4-induced nonalcoholic steatohepatitis male C57BL/6 mouse assessed as decrease in alpha-SMA expression in liver at 100 mg/kg, po administered for 4 weeks. In kind it is functional, organism-based.
In data set [7] the test system is Mus musculus. Put plainly: Anti-inflammatory activity in high-fat/high-sugar diet and CCl4-induced nonalcoholic steatohepatitis male C57BL/6 mouse assessed as decrease in IL-6 mRNA expression at 100 mg/kg, po administered for 4 weeks. The format is functional, organism-based.
For data set [8], the system named is Mus musculus. Put plainly: Anti-fibrotic activity in high-fat/high-sugar diet and CCl4-induced nonalcoholic steatohepatitis male C57BL/6 mouse assessed as decrease in TGF-beta mRNA expression at 100 mg/kg, po administered for 4 weeks. In kind it is functional, organism-based.
Data set [9] relates to Mus musculus. Put plainly: Antioxidant activity in high-fat/high-sugar diet and CCl4-induced nonalcoholic steatohepatitis male C57BL/6 mouse assessed as increase in SOD1 mRNA expression at 100 mg/kg, po administered for 4 weeks. In kind it is functional, organism-based.
For data set [10], the system named is Mus musculus. Description: Protection against CCl4-induced liver fibrosis in male C57BL/6 mouse assessed as decrease in hepatic hydroxyproline content at 100 mg/kg […]. In kind it is functional, organism-based.
The nature of data set [11]: Acute toxicity in ICR mouse assessed as change in serum AST level at 500 mg/kg, IG. In kind it is organism-based. To be noted: in vivo, po.
Data set [12] is described as follows: Acute toxicity in ICR mouse assessed as change in serum TBIL level at 500 mg/kg, IG. The format is organism-based. Particulars: in vivo, po.

For `COc1ccc(/C=C/c2cc(OC)cc(OCc3ccc(OCC(=O)O)c(F)c3)c2)cc1`, the EC50 in data set [1] was 28.5 µM; in data set [2], 4.8 µM. Besides, the half-life in data set [3] amounted to 51.2 min. Also, the result with Mus musculus [4], in the data set with Mus musculus [5], in the data set with Mus musculus [6], with Mus musculus [7], with Mus musculus [8] and in the data set with Mus musculus [9] was Active. Moreover, the result in the data set on Mus musculus [10] was Active. For the same compound, the Activity entry in data set [11] and in data set [12] was “Non-Toxic” throughout.

A word on the EC50: it is the concentration needed to bring the measured effect to its halfway point. By half-life is commonly meant the time in which the quantity being followed falls by half.
